Reference: patent US9856290B2, “Glycopeptide compositions and uses thereof” (SUSSEX RESEARCH LABORATORIES INC., priority 2013, dated 2018)
Marks after values point to notes of the source that are not given here. The star is where a group is joined. Ac7‑β‑Mal = peracetylated β-maltose, CC(=O)OC[C@H]1O[C@@H](*)[C@H](OC(C)=O)[C@@H](OC(C)=O)[C@@H]1O[C@H]1O[C@H](COC(C)=O)[C@@H](OC(C)=O)[C@H](OC(C)=O)[C@H]1OC(C)=O; Palmitoyl = CCCCCCCCCCCCCCCC(=O)*

Key:
[1] = tested on: MatTek's EpiDermFT 3D human in vitro skin model; assay: Histology (hematoxylin & eosin) of 3D human in vitro skin model; type: cell-based; settings: 5 μM, 72 hours post treatment
Procedure: MatTek's EpiDermFT™ 3D human in vitro skin model was produced by MatTek Corporation (Ashland, Mass., USA). The 3D skin model is comprised of normal human epidermal keratinocytes (NHEK) and normal human dermal fibroblasts (NHDF) derived from neonatal-foreskin tissue and adult skin, respectively. […] The tissues were grown at air-liquid interface in Costar Snapwell™ single well tissue culture plate inserts with 0.4 μm pore size, 1.2 cm in diameter and 1.0 cm^2 surface area. For tissue maintenance, serum-free EFT-400-ASY media was used containing Dulbecco's Modified Eagle's Medium (DMEM), epidermal growth factor, insulin, hydrocortisone, 5 μg/mL gentamicin, 0.2 μg/ml amphotericin B and phenol red.
Tissues were rinsed twice with 1% PBS and treated with 5 μM GP003-9, reference (Pal-KTTKS, CPC Scientific, 822197), and control (DMSO, Fisher, BP231-100). At 72 hours post treatment, the tissue was fixed in 10% neutral buffered formalin overnight and transferred to 1% PBS the next day. […]
MatTek's EpiDermFT™, which is a 3D human in vitro skin model (comprised of normal human epidermal ketatinocytes and normal human dermal fibroblasts), was used to further investigate the effects of an exemplary glycosylated peptide (GP003-9 (SEQ ID NO: 6)) on human skin. […] At 72 hours post treatment, supernatants were isolated and analysed for elastin secretion. […]

[2] = tested on: Human Dermal Fibroblasts (KMST-6); assay: ECM ELISA assay: elastin secretion by human dermal fibroblasts; type: cell-based; settings: 5 μM
Procedure, shortened: (§1)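 KMST-6 human dermal fibroblasts treated with 5 μM compound in serum-free medium with sodium ascorbate and β-aminopropionate fumarate for 48 and 72 h. Secreted fibronectin and elastin quantified by ELISA (450 nm, 4-parameter standard curve), normalized to total cellular protein and expressed as % of DMSO control.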

[3] = tested on: Human Dermal Fibroblasts (KMST-6); assay: ECM ELISA assay: fibronectin secretion by human dermal fibroblasts; type: cell-based; settings: 5 μM
Procedure, shortened: as §1

[4] = tested on: Human Dermal Fibroblasts (KMST-6); assay: Total Collagen Assay (Sirius Red Collagen Detection Kit); type: cell-based; settings: 5 μM
Procedure: KMST-6 cells (Japan Health Sciences Foundation, JCRB0433) were seeded at 7,000 cells/mL in 60 mm tissue culture treated plates (Falcon, 353002) in complete media. The complete media consisted of the following: MEM/EBSS (Hyclone, SH30024.01), 10% Heat-Inactivated FBS (Gibco, 10082-147), 1% L-Glutamine (Hyclone, SH30031.01), 1% Nucleosides (800 mg/L Adenosine, 850 mg/L Guanidine, 730 mg/L Cytidine, 730 mg/L Uridine and 240 mg/L Thymidine), 1% Penicillin/Streptomycin (HyClone, SV30010), 1% Sodium Pyruvate (HyClone, SH30239.01), 1% Non-Essential Amino Acids (Hyclone, SH30238.01) and 0.04% Gentamicin (Gibco, 15710-064). Cells were grown for 2 days prior to treatments. The cells were washed with 1×PBS (Fisher, SH30256.01) and treated with 5 μM glycopeptides (GP003-9, GP004-3, GP004-4), reference (Pal-KTTKS, CPC Scientific, 822197), and control (DMSO, Fisher, BP231-100) in serum-free media supplemented with 50 µg/mL Sodium Ascorbate (Sigma, A4034) and 80 μg/mL β-Aminopropionate Fumarate (Sigma, A3134). The treated cells were incubated at 37° C. and 5% CO2 for 48 and 72 hours. At each timepoint, media from each treatment was collected and centrifuged at 1500 RPM for 15 minutes at 4° C. The supernatant was collected and stored at −80° C. for extracellular matrix protein quantification. The following kit was used for quantification of total collagen: Sirius Red Collagen Detection Kit (Chondrex Inc., 9062). The cells were harvested and lysed with Lysis Buffer (20 mM Tris-HCl (Sigma, T1503), 137 mM NaCl (Sigma, S9888), 2 mM EDTA (Fisher, BP118), 1% IGEPAL (Sigma, 18896), 10% Glycerol (Sigma, G5516), 100 μM PMSF (Fisher, 36978) and 10 μg/mL Leupeptin (Sigma, L2884)). They were placed on a container of ice on an orbital shaker (VWR, 89032-088) for 30 minutes. The cell lysate was centrifuged at 10,000 g for 5 minutes at 4° C. The supernatant was collected and used for protein quantification (BioRad, 500-0112). […]

human lung fibroblasts = human lung fibroblasts in vitro; cited from earlier work
[5] = 72 hours, versus Pal-KTTKS reference
[6] = KMST-6, 48 hours, % compared to control set at 100%, normalized to total protein
[7] = KMST-6, 72 hours, % compared to control set at 100%, normalized to total protein

**Q.** For CCCCCCCCCCCCCCCC(=O)N[C@@H](CCCCN)C(=O)N[C@H](C(=O)N[C@H](C(=O)N[C@@H](CCCCN)C(=O)N[C@@H](CO)C(=O)O)[C@@H](C)O)[C@@H](C)O[C@@H]1O[C@H](COC(C)=O)[C@@H](O[C@H]2O[C@H](COC(C)=O)[C@@H](OC(C)=O)[C@H](OC(C)=O)[C@H]2OC(C)=O)[C@H](OC(C)=O)[C@H]1OC(C)=O [GP003-9, Pal-KT(Ac7-β-Mal)TKS-OH], which “effect on the histology of the 3D human skin model” value [1] is on record?
**A.** The value was “no detrimental effect”.

**Q.** What does the source list for “Pal-KTT(Ac7-β-Mal)KS-OH (Palmitoyl-KTT(Ac7‑β‑Mal)KS-OH; SMILES CCCCCCCCCCCCCCCC(=O)N[C@@H](CCCCN)C(=O)N[C@H](C(=O)N[C@H](C(=O)N[C@@H](CCCCN)C(=O)N[C@@H](CO)C(=O)O)[C@@H](C)O[C@@H]1O[C@H](COC(C)=O)[C@@H](O[C@H]2O[C@H](COC(C)=O)[C@@H](OC(C)=O)[C@H](OC(C)=O)[C@H]2OC(C)=O)[C@H](OC(C)=O)[C@H]1OC(C)=O)[C@@H](C)O; listed as Homo sapiens) [GP004-3]”?
**A.** biological activity in elastin secretion compared to control ([2]; 72 hours): greater biological activity; increased elastin secretion compared to control ([2]; 72 hours, versus DMSO control): 285%; increased secretion of elastin compared to the reference peptide [2, 5]: 252%; Elastin Secretion at 48 hours [2, 6]: 226.1%; Elastin Secretion at 72 hours [2, 7]: 384.7* %; ELASTIN (ECM Protein Summary Table) ([2]; KMST-6, 72 hours, control 100%): 385*^# %; biological activity in fibronectin secretion compared to control ([3]; 72 hours): greater biological activity; increased fibronectin secretion compared to control ([3]; 72 hours, versus DMSO control): 68%; increased fibronectin secretion compared to reference [3, 5]: 50%; Fibronectin secretion at 48 hours [3, 6]: 185.0* %; Fibronectin Secretion at 72 hours [3, 7]: 168.3* %; FIBRONECTIN (ECM Protein Summary Table) ([3]; KMST-6, 72 hours, control 100%): 168*^# %; increased total collagen secretion compared to control ([4]; 72 hours, versus DMSO control): 31%; increased total collagen secretion compared to the reference peptide [4, 5]: 21%; TOTAL COLLAGEN (ECM Protein Summary Table) ([4]; KMST-6, 72 hours, control 100%): 131*^# %

**Q.** With “Lys-Thr-Thr-Lys-Ser (KTTKS; listed as Homo sapiens) [pentapeptide derived from the carboxyl-terminus of type I procollagen]” as the molecule, how does the “ECM proteins (synthesis of collagen types I and III and fibronectin)” value (human lung fibroblasts) read?
**A.** The value was “significantly augment the ECM proteins”.
